Converted amounts (≈) assume the structure as drawn. The source made the active and inactive calls. No cut-off for these calls is given here.
Legend:
[1] = biological target: T1, Platelet-derived growth factor receptor beta (Mus musculus, UniProt P05622); experiment: Inhibition of PDGF-induced PDGFRbeta phosphorylation in mouse NIH3T3 cells incubated for 1 hr prior to PDGF induction measured after 15 mins by fluorescence assay; assay type: cell-based
[2] = biological target: Mast/stem cell growth factor receptor Kit (Homo sapiens, UniProt P10721); experiment: Inhibition of cKIT (unknown origin)
[3] = (§1) Apparent permeability across apical to basolateral side in pig LLC-PK1 cells; assay type: ADME, cell-based, Sus scrofa; settings: LLC-PK1
Cytochrome P450 2D6 = Cytochrome P450 2D6 (Homo sapiens, UniProt P10635); experiment: Inhibition of CYP2D6 (unknown origin); assay type: ADME
[4] = Dissociation constant, pKa of the compound; assay type: physicochemical
[5] = (§2) Cmax in rat at 10 mg/kg, po; assay type: ADME, organism-based; parameters: dose 10 mg/kg, route oral; settings: in vivo
[6] = (§3) Oral bioavailability in rat at 10 mg/kg; assay type: ADME, organism-based; settings: in vivo
[7] = Clearance in rat at 1 mg/kg, iv; assay type: ADME, organism-based; parameters: dose 1 mg/kg, route intravenous; settings: in vivo
Cytochrome P450 2C9 = Cytochrome P450 2C9 (Homo sapiens, UniProt P11712); experiment: Inhibition of CYP2C9 (unknown origin); assay type: ADME
Cytochrome P450 1A2 = biological target: T2, Cytochrome P450 1A2 (Homo sapiens, UniProt P05177); experiment: Inhibition of CYP1A2 (unknown origin); assay type: ADME
T2 sequence (P05177 whole entry): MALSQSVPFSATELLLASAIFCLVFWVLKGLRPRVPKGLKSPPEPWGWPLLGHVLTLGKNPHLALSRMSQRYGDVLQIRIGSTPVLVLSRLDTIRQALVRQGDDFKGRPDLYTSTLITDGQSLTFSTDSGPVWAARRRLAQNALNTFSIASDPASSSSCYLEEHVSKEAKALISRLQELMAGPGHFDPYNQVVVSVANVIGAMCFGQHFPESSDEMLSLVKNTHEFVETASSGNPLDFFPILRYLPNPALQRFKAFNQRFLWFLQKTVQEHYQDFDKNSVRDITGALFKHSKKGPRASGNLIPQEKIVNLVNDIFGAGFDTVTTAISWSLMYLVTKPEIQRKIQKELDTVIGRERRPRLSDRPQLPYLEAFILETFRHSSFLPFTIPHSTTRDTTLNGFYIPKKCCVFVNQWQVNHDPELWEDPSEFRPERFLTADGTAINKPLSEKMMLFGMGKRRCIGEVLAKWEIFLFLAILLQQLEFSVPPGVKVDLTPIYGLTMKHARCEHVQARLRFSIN

MDR1 = experiment: Apparent permeability across apical to basolateral side in pig LLC-PK1 cells expressing MDR1 assessed as compound recovery; assay type: ADME, cell-based, Sus scrofa; settings: read-out: Papp
Cytochrome P450 2C19 = Cytochrome P450 2C19 (Homo sapiens, UniProt P33261); experiment: Inhibition of CYP2C19 (unknown origin); assay type: ADME
Cytochrome P450 3A4 = Cytochrome P450 3A4 (Homo sapiens, UniProt P08684); experiment: Inhibition of CYP3A4 (unknown origin); assay type: ADME
[8] = (§4) AUC in rat at 10 mg/kg, po; assay type: ADME, organism-based, Plasma; parameters: dose 10 mg/kg, route oral; settings: plasma
[9] = biological target: T1, Platelet-derived growth factor receptor beta; experiment: Inhibition of PDGF-induced PDGFRbeta phosphorylation in mouse NIH3T3 cells incubated for 1 hr prior to PDGF induction measured after 15 mins by fluorescence assay in presence of 50% human plasma; assay type: cell-based
[10] = Solubility of the compound; assay type: physicochemical
[11] = biological target: Macrophage colony-stimulating factor 1 receptor (Homo sapiens, UniProt P07333)
Description: Inhibition of cFMS (unknown origin)

Rattus norvegicus [12] = experiment: as §2; assay type: ADME, organism-based; parameters: dose 10 mg/kg, route oral; settings: in vivo
Rattus norvegicus [13] = experiment: as §3; assay type: ADME, organism-based; settings: in vivo
Rattus norvegicus [14] = experiment: as §4; assay type: ADME, organism-based, Plasma; parameters: dose 10 mg/kg, route oral; settings: in vivo
LLC-PK1 = experiment: as §1; assay type: ADME, cell-based, Sus scrofa; settings: llc-pk1
[15] = biological target: Voltage-gated inwardly rectifying potassium channel KCNH2 (Homo sapiens, UniProt Q12809); experiment: Inhibition of human ERG
[16] = AUC in cynomolgus monkey at 30 mg/kg, po; assay type: ADME, organism-based, Macaca fascicularis; parameters: dose 30 mg/kg, route oral; settings: plasma
[17] = Oral bioavailability in cynomolgus monkey at 30 mg/kg; assay type: ADME, organism-based, Macaca fascicularis; settings: in vivo
Mus musculus [18] = experiment: In vivo inhibition of PDGFR phosphorylation in tumor of nu/nu nude mouse xenografted with rat C6 cells administered as po qd after 2 to 6 hrs; assay type: functional, organism-based
[19] = Cmax in cynomolgus monkey at 30 mg/kg, po; assay type: ADME, organism-based, Macaca fascicularis; parameters: dose 30 mg/kg, route oral; settings: in vivo
Rattus norvegicus [20] = experiment: Toxicity in rat up to 50 mg/kg, po bid administered for 2 weeks; assay type: organism-based; parameters: dose 50 mg/kg, route oral; settings: in vivo, 336 h
Mus musculus [21] = experiment: In vivo inhibition of PDGFR phosphorylation in tumor of nu/nu nude mouse xenografted with rat C6 cells at 10 to 100 mg/kg, po qd after 12 hrs; assay type: functional, organism-based

Chain of Cytochrome P450 2D6 (P10635 whole entry): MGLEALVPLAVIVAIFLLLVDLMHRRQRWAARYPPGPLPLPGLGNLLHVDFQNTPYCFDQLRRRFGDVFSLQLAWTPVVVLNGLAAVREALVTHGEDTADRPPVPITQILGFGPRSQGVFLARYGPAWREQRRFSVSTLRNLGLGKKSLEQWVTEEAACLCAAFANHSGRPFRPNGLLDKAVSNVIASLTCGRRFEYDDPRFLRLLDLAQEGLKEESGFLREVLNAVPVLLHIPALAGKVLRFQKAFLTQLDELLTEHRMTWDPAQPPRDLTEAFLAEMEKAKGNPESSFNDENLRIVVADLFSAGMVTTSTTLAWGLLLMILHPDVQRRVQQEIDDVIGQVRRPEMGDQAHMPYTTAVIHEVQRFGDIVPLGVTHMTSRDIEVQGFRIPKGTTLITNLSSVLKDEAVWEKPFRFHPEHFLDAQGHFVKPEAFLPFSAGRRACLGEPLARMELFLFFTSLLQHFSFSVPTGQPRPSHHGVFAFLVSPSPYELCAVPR
Chain of Cytochrome P450 2C9 (P11712 whole entry): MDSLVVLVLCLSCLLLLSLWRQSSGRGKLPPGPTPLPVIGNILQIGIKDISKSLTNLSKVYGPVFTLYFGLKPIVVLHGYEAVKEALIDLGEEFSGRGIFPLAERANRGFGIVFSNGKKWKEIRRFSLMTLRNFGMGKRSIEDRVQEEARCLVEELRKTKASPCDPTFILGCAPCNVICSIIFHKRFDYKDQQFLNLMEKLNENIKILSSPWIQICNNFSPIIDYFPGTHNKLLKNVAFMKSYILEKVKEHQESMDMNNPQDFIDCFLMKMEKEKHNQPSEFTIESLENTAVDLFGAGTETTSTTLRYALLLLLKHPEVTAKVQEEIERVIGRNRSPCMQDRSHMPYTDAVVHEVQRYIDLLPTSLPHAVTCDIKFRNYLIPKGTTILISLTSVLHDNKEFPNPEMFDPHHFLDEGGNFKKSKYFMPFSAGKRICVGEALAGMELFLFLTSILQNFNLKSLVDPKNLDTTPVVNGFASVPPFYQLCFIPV
Chain of Cytochrome P450 3A4 (P08684 whole entry): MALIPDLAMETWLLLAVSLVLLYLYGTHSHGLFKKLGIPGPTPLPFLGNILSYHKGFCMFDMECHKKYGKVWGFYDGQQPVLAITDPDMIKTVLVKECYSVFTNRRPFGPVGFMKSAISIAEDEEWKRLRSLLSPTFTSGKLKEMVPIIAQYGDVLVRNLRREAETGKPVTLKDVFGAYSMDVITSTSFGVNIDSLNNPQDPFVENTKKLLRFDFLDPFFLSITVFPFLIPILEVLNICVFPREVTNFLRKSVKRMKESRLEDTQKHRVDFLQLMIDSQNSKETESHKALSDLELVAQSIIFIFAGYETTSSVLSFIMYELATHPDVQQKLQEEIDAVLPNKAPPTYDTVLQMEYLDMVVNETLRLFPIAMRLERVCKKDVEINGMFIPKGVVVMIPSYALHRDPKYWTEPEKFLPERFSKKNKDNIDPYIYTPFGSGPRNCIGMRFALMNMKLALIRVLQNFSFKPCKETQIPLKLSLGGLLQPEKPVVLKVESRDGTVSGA
Chain of Cytochrome P450 2C19 (P33261 whole entry): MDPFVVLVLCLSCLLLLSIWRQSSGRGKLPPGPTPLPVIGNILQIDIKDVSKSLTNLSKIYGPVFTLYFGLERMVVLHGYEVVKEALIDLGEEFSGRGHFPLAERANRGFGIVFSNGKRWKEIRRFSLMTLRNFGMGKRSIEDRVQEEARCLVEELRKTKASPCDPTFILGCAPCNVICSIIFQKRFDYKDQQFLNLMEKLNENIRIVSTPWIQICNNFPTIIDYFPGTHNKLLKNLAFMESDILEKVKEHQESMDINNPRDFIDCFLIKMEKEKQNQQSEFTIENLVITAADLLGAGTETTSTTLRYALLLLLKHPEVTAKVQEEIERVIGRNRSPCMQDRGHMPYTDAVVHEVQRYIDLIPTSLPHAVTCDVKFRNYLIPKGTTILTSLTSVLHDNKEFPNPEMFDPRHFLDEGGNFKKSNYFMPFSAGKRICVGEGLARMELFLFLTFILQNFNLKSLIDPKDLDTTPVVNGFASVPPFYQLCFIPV
Chain of Mast/stem cell growth factor receptor Kit (P10721 whole entry): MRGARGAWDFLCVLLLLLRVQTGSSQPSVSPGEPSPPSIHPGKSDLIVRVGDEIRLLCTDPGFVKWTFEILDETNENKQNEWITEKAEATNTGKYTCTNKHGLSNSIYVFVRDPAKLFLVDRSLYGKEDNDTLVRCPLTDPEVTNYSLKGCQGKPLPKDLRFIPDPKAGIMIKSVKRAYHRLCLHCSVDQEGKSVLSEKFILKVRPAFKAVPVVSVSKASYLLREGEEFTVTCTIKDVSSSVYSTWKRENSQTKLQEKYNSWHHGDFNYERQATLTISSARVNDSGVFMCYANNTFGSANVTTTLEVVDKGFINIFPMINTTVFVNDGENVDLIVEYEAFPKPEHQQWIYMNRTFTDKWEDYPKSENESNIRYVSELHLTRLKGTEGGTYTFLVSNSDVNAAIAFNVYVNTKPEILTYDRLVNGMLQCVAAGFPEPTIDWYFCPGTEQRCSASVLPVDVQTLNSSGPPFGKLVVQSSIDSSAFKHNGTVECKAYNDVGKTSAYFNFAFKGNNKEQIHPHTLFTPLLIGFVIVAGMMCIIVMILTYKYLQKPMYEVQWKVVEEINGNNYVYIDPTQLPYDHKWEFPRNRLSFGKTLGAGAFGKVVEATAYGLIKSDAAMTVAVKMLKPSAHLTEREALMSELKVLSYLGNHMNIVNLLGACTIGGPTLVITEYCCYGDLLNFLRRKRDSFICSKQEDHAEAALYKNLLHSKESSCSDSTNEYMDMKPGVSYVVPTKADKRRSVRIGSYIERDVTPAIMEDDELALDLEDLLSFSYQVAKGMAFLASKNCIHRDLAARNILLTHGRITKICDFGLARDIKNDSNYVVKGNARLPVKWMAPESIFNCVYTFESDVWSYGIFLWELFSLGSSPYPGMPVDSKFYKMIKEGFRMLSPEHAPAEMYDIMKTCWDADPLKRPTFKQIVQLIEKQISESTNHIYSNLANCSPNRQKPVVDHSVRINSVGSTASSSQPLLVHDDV
T1 sequence (P05622 whole entry): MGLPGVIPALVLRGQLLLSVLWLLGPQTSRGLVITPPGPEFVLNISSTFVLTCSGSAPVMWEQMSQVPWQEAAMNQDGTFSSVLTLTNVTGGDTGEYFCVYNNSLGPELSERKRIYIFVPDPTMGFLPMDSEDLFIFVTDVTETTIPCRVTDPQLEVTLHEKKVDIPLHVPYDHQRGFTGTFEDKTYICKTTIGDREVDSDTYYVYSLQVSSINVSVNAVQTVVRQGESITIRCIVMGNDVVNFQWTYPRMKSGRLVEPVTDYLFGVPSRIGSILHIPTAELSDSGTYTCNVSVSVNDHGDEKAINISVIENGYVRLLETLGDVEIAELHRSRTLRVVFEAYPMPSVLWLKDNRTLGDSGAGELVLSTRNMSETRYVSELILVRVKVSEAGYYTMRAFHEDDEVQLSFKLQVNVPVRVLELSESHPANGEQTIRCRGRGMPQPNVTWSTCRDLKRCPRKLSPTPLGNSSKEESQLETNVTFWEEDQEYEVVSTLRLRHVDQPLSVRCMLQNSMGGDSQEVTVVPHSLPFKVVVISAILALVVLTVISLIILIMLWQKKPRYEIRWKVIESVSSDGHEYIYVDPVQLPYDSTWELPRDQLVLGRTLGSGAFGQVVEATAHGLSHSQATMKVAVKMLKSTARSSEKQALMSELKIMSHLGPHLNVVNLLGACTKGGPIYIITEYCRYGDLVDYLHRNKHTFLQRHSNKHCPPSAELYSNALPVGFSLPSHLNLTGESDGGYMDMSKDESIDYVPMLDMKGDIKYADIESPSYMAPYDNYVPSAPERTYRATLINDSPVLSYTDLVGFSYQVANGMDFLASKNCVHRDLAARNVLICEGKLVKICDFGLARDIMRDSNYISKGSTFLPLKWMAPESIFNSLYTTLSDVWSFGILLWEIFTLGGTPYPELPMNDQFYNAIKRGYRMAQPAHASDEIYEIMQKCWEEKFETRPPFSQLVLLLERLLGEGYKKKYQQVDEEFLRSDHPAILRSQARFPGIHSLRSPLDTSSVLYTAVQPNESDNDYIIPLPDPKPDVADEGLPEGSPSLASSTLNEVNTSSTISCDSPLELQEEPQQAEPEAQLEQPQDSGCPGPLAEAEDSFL
Chain of Macrophage colony-stimulating factor 1 receptor (P07333 whole entry): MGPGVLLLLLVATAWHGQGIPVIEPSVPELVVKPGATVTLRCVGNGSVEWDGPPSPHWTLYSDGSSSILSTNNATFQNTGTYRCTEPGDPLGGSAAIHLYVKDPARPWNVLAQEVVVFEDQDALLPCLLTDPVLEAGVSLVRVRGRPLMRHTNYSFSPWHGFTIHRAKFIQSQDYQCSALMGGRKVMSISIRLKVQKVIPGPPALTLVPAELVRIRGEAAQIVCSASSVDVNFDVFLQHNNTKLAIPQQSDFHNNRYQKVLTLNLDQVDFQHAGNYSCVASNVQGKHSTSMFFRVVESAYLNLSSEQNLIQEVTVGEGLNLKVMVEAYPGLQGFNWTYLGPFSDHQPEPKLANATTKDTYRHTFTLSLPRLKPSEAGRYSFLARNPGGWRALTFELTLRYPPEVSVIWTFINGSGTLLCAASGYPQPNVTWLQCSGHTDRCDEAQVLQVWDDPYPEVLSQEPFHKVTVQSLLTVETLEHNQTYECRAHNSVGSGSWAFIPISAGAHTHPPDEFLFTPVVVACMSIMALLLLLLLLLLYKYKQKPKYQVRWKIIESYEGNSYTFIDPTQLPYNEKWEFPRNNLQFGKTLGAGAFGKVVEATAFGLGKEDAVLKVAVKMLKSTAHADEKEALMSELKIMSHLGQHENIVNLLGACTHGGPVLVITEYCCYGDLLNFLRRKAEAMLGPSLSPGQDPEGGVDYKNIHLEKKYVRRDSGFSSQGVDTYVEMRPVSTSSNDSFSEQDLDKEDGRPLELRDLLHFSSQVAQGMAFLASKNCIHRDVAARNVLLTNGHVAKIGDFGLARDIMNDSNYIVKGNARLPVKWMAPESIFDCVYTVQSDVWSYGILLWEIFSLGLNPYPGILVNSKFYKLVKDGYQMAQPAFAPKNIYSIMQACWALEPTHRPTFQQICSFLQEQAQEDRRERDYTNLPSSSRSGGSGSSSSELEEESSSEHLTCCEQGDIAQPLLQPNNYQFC

Structure (SMILES): COCCOc1ccn2c(-c3ccc4cccc(O[C@H]5CCCNC5)c4n3)cnc2c1
- IC50 [1]: 5 nM

Structure (SMILES): COCCOc1ccn2c(-c3ccc4cccc(O[C@@H]5CCNC[C@@H]5O)c4n3)cnc2c1 (racemic)
- IC50 [1]: 2 nM

Structure (SMILES): COCCOc1ccn2c(-c3ccc4cccc(OCC(C)(C)CN)c4n3)cnc2c1
- IC50 [1]: 18 nM
- IC50 [2]: > 1000 nM

Structure (SMILES): COCCOc1ccn2c(-c3ccc4cccc(O[C@@H]5CCNC[C@H]5O)c4n3)cnc2c1 (racemic)
- IC50 [1]: 3 nM

Structure (SMILES): COCCOc1ccn2c(-c3ccc4cccc(O[C@@H]5CCNC[C@@H]5F)c4n3)cnc2c1 (relative stereo)
- Papp A→B [3]: 2.7 ×10⁻⁶ cm/s
- IC50 [1]: 4 nM
- IC50 (Cytochrome P450 2D6): 5880 nM
- pKa [4]: 7.5
- Cmax [5]: 70 ng/mL
- bioavailability [6]: 13%
- clearance [7]: 28 mL/min/kg
- IC50 (Cytochrome P450 2C9): > 10000 nM
- IC50 (Cytochrome P450 1A2): > 10000 nM
- IC50 [2]: > 1000 nM
- recovery (MDR1): 30%
- IC50 (Cytochrome P450 2C19): > 10000 nM
- IC50 (Cytochrome P450 3A4): > 10000 nM
- AUC [8]: 730 ng·h/mL
- IC50 [9]: 25 nM

Structure (SMILES): COCCOc1ccn2c(-c3ccc4cccc(OC5CCNCC5)c4n3)cnc2c1
- Papp A→B [3]: 16.3 ×10⁻⁶ cm/s
- IC50 [1]: 3 nM
- IC50 (Cytochrome P450 2D6): > 10000 nM
- pKa [4]: 9.3
- Cmax [5]: 70 ng/mL
- bioavailability [6]: 16%
- clearance [7]: 33 mL/min/kg
- solubility [10]: > 1000 µg/mL
- IC50 [11]: > 1000 nM
- IC50 (Cytochrome P450 2C9): > 10000 nM
- IC50 (Cytochrome P450 1A2): > 10000 nM
- IC50 [2]: 961 nM
- recovery (MDR1): 50%
- IC50 (Cytochrome P450 2C19): > 10000 nM
- IC50 (Cytochrome P450 3A4): > 10000 nM
- AUC [8]: 800 ng·h/mL
- IC50 [9]: 25 nM

Structure (SMILES): COCCOc1ccn2c(-c3ccc4cccc(O[C@@H]5CCNC[C@H]5F)c4n3)cnc2c1 (relative stereo)
- Papp A→B [3]: 4.4 ×10⁻⁶ cm/s
- IC50 [1]: 4 nM
- IC50 (Cytochrome P450 2D6): > 10000 nM
- pKa [4]: 7.4
- Cmax (Rattus norvegicus [12]): 120 ng/mL
- F (Rattus norvegicus [13]): 30%
- IC50 (Cytochrome P450 2C9): > 10000 nM
- IC50 (Cytochrome P450 1A2): > 10000 nM
- IC50 [2]: 682 nM
- recovery (MDR1): 30%
- IC50 (Cytochrome P450 2C19): > 10000 nM
- IC50 (Cytochrome P450 3A4): > 10000 nM
- AUC (Rattus norvegicus [14]): 2100 ng·h/mL
- IC50 [9]: 63 nM

Structure (SMILES): COCCOc1ccn2c(-c3ccc4cccc(O[C@@H]5CCNC[C@H]5F)c4n3)cnc2c1 [listing 1 of 2 here]
- Papp (LLC-PK1): 3.7 ×10⁻⁶ cm/s
- IC50 [15]: 3900 nM
- IC50 [1]: 3 nM
- IC50 (Cytochrome P450 2D6): > 10000 nM
- AUC [16]: 950 ng·h/mL
- bioavailability [17]: 6%
- Cmax [5]: 160 ng/mL
- bioavailability [6]: 28%
- EC50 (Mus musculus [18]): 0.065 µg/mL (≈ 0.149 µM)
- Cmax [19]: 190 ng/mL
- clearance [7]: 20 mL/min/kg
- IC50 (Cytochrome P450 2C9): > 10000 nM
- Activity (Rattus norvegicus [20]): Non-toxic
- IC50 (Cytochrome P450 1A2): > 10000 nM
- IC50 [2]: 430 nM
- IC50 (Cytochrome P450 2C19): > 10000 nM
- AUC [8]: 2300 ng·h/mL
- IC50 [9]: 70 nM

Structure (SMILES): COCCOc1ccn2c(-c3ccc4cccc(O[C@@H]5CCCNC5)c4n3)cnc2c1
- IC50 [1]: 72 nM

Structure (SMILES): COCCOc1ccn2c(-c3ccc4cccc(OCC5CNCCO5)c4n3)cnc2c1 (racemic)
- IC50 [1]: 160 nM
- IC50 [11]: > 1000 nM

Structure (SMILES): COCCOc1ccn2c(-c3ccc4cccc(O[C@@H]5CNC[C@H]5OC)c4n3)cnc2c1 (racemic)
- IC50 [1]: 10 nM
- IC50 [11]: > 1000 nM
- IC50 [9]: > 1000 nM

Structure (SMILES): COCCOc1ccn2c(-c3ccc4cccc(OCC5(F)CCNCC5)c4n3)cnc2c1
- IC50 [1]: 1 nM

Structure (SMILES): COCCOc1ccn2c(-c3ccc4cccc(OCCN)c4n3)cnc2c1
- IC50 [1]: 176 nM
- IC50 [11]: > 1000 nM

Structure (SMILES): COCCOc1ccn2c(-c3ccc4cccc(O[C@H]5CCNC[C@@H]5F)c4n3)cnc2c1
- IC50 [1]: 3 nM
- IC50 (Cytochrome P450 2D6): > 10000 nM
- IC50 (Cytochrome P450 2C9): > 10000 nM
- IC50 (Cytochrome P450 1A2): > 10000 nM
- IC50 [2]: 491 nM
- IC50 (Cytochrome P450 2C19): > 10000 nM
- IC50 (Cytochrome P450 3A4): > 10000 nM
- IC50 [9]: 55 nM

Structure (SMILES): COCCOc1ccn2c(-c3ccc4cccc(OCc5cnc[nH]5)c4n3)cnc2c1
- IC50 [1]: > 1000 nM
- IC50 [11]: > 1000 nM

Structure (SMILES): COCCOc1ccn2c(-c3ccc4cccc(O[C@@H]5CN[C@H](C(=O)OC)C5)c4n3)cnc2c1
- IC50 [1]: > 1000 nM
- IC50 [11]: > 1000 nM

Structure (SMILES): COCCOc1ccn2c(-c3ccc4cccc(O[C@@H]5CCNC[C@H]5F)c4n3)cnc2c1 [listing 2 of 2 here]
- inhibition (Mus musculus [18]): Dose-dependent effect
- inhibition (Mus musculus [21]): inactive

Structure (SMILES): COCCOc1ccn2c(-c3ccc4cccc(O[C@H]5CN[C@H](C(=O)OC)C5)c4n3)cnc2c1
- IC50 [1]: 958 nM
- IC50 [11]: > 1000 nM

Structure (SMILES): COCCOc1ccn2c(-c3ccc4cccc(OCC5CCNCC5)c4n3)cnc2c1
- IC50 [1]: 34 nM
- IC50 [11]: > 1000 nM

Structure (SMILES): COCCOc1ccn2c(-c3ccc4cccc(O[C@H]5CC[C@H](N)CC5)c4n3)cnc2c1
- IC50 [1]: 28 nM
- IC50 [11]: > 1000 nM

Structure (SMILES): COCCOc1ccn2c(-c3ccc4cccc(OC5CCN(C)CC5)c4n3)cnc2c1
- IC50 [1]: 9 nM

Structure (SMILES): COCCOc1ccn2c(-c3ccc4cccc(OCC5CCNC5)c4n3)cnc2c1 (racemic)
- IC50 [1]: 1 nM
- IC50 [9]: 29 nM
